Assay results taken from patent US20140255432A1, “SILVESTROL, SILVESTROL ANALOGS AND USES THEREOF” (priority 2011, published 2014).

Key:
Assay type in all cases: cell-based, human
[1] = system: CD3-/CD19+ LCL and immune effector subsets; experiment: Non-irradiated LCL / autologous PBMC co-cultures, flow cytometry
Procedure: Lymphoblastoid cell lines (LCL) were derived in vivo by engrafting severe combined immune-deficient (SCID) mice (Taconic, Hudson N.Y.) with human peripheral blood mononuclear cells (PBMC) from a healthy EBV-positive donor as described (Rowe 1991; Baiocchi 1994). Co-cultures (Cocx) were created by mixing 5×10^4 LCL (either non-irradiated or irradiated with 14000 rad) per well with equal numbers of autologous PBMC in 96-well plates. Cultures were grown in the presence of 10 U/mL IL-2 and were given a single dose of silvestrol and cultured for 10-14 days.
Cells from irradiated or non-irradiated co-cultures were co-stained with LIVE/DEAD cell stain (Invitrogen, Grand Island, N.Y.) and hu-CD3-APC and either hu-CD4-PE, hu-CD-8-PE, hu-CD19-PE (BD Biosciences, San Diego, Calif.), or hu-CD56-PE (Beckman Coulter, Brea, Calif.). Live events were gathered by gating on cells negative for the LIVE/DEAD stain on an FC500 cytometer (Beckman Coulter). Cell viability was also measured by flow cytometry at 24, 72, and 120 hr using annexin-V-FITC and propidium iodide (PI) according to the manufacturer's instructions (BD Biosciences).
It was next examined how viable, non-irradiated LCL interacted with immune effectors in the presence of silvestrol, a situation closer to conditions that occur in vivo. CoCx were incubated in the presence of 10 U/mL IL-2. Specifically, LCL from three separate donors were incubated at a ratio of 1:1 with their respective autologous PBMCs for 10 days after adding a single dose of 0, 2, 5, or 10 nM silvestrol. On day 10, flow cytometric analysis was conducted. Live events were gathered by gating on cells negative for the LIVE/DEAD stain. Data are expressed as percentage of total viable population for (A) CD3^−/CD19^+ LCLs; (B) CD3^+/C4^+ helper T cells; (C) CD3^+/CD8^+ CTLs; or (D) CD3^−/CD56^+ NK cells. Left untreated, the transformed LCL (CD3^−/CD19^+) cells proliferated and matched the expansion of effectors lymphocyte subsets, approximately maintaining the 1:1 ratio (FIGS. 34A and 34E). […] Similarly, CD4^+ T cell percentages were reduced with increasing silvestrol concentrations (FIG. 34B). In contrast, CD8+ T cells and CD56^+ NK cell populations expanded in the presence of silvestrol, both as percent of population and absolute numbers (FIGS. 34C-34D).

NK cells against LCL = experiment: Antibody-dependent cell-mediated cytotoxicity (ADCC) assay of NK cells with rituximab
Procedure: Non-radioactive flow cytometry-based cytotoxicity assays have been described previously (Godoy-Ramirez 2005; Helguera 2011). Co-cultures of PBMC and irradiated LCL were grown in the presence or absence of silvestrol for 14 d and collected. Fresh autologous LCL cells were stained with 200 nM carboxyfluorescein diacetate succinimidyl ester (CFSE) (CellTrace™, Invitrogen) for 15 min at 25° C. prior to being mixed with effectors from the irradiated co-cultures at an effector:target (E:T) ratio of 20:1 for 4 hr at 37° C. After the incubation, cells were stained with 7-aminoactinomycin D (7AAD) (BD Biosciences, San Diego, Calif.) and washed. Cytotoxicity was measured by gating on the CFSE-positive events and measuring the 7AAD-positive cells. (See FIGS. 31 and 32). For antibody-dependent cell-mediated cytotoxicity (ADCC) assays the same technique was used; however, the co-cultured effectors were natural killer (NK) cell-enriched and were incubated in the presence or absence of 5 μg/mL rituximab or herceptin (negative control) (Genentech, Inc., South San Francisco, Calif.) for 4 hr at 37° C.
Next, antibody-dependent cell-mediated cytotoxicity (ADCC) assays were utilized to measure the innate immune response of NK cells to LCL in the presence of silvestrol. […] Fresh CFSE-labeled LCL targets and autologous NK cells were incubated with the monoclonal antibodies rituximab (anti-CD20, expressed on LCL) or herceptin (anti-HER2, not expressed on immune cells). After 4 hr, ADCC was evaluated using CFSE and 7-AAD staining as described above. Specifically, cytotoxicity was measured by CFSE^+/7AAD^+ events. Data are shown relative to the positive control (effectors+targets+ritux) and are the averages of three individual experiments. Bars show −/+ standard deviation.
To determine the acute effect of silvestrol on ADCC, fresh (non-autologous) NK cells were obtained from enriched leukocyte products, incubated 18 hr with or without 10 nM silvestrol, then washed and mixed with CFSE-stained LCL. […]

[2] = system: EBV-positive lymphoblastoid cell lines (LCL); experiment: MTS proliferation assay
Procedure: MTS proliferation assays were performed according the CellTiter 96™ Aqueous Cell Proliferation Assay Technical Bulletin (Promega, Madison, Wis.). 5×10^4 cells were plated in each well of a 96-well plate at 37° C. and assayed for proliferation at 24, 72, and 120 hr.
The direct anti-tumor activity of silvestrol in leukemia and lymphoma models has been document (Hwang 2004; Bordeleau 2008; Cencic 2009; Lucas 2009 Alinari 2011; Saradhi 2011) as well as silvestrol's increased cytotoxicity to malignant B cells compared to normal blood lymphocytes (Lucas 2009). However, activity of silvestrol has not previously been described in spontaneous EBV-transformed cell lines. Silvestrol's activity in fully transformed EBV-positive LCL derived from tumors of SCID mice engrafted with PBMC from EBV-seropositive donors was observed. Six of these EBV-LCL lines were plated in the presence of low concentrations of silvestrol (2-50 nM), and apoptosis (viability assessed by annexin/PI flow cytometry) (FIG. 2A) and proliferation (MTS assay) (FIG. 2B) were evaluated at 24, 72, and 120 hr. Cells were plated at a sufficiently low density so that even after five days there was minimal loss of viability due to nutrient depletion in the untreated control. In FIG. 2A, data are shown as percent annexin-negative and PI-negative cells relative to the time-matched vehicle control. Bars show −/+ standard deviation. […]

[3] = single dose 2, 5, 10 nM, day 10, non-irradiated LCL

For `COC(=O)[C@H]1[C@@H](O)[C@@]2(O)c3c(OC)cc(O[C@@H]4O[C@@H]([C@H](O)CO)CO[C@H]4OC)cc3O[C@@]2(c2ccc(OC)cc2)[C@@H]1c1ccccc1` [silvestrol], the “CD19+ B cells in non-irradiated co-cultures” value ([1]; 2, 5, 10 nM, 14 days of culture (FIG. 16)) was “dose dependent loss”, the “CD4+ T cell percentages” value [1, 3] was “reduced” and the “CD8+ T cell population (percent and absolute numbers)” value [1, 3] was “expanded”. The “CD56+ NK cell population (percent and absolute numbers)” value [1, 3] was “expanded”, the “viable EBV-LCL (CD3-/CD19+)” value [1, 3] was “dose-dependent ablation” and the “ADCC activity of NK cells incubated in media vs. silvestrol” value (NK cells against LCL; 10 nM, 24 hr pretreatment, DC9 LCLs (FIG. 19)) was “equivalent ADCC activity”. For the same compound, the “ADCC activity of freshly isolated (non-autologous) NK cells” value (NK cells against LCL; 18 hr pre-incubation with 10 nM, p=0.854) was “no observable effect”, the “rituximab-dependent cytotoxic activity of NK cells, expanded with vs. without silvestrol” value (NK cells against LCL; autologous NK cells, 10 nM for 14 days, p=0.838) was “similar” and the “growth inhibition vs. untreated control” value ([2]; 2-50 nM, 24, 72, 120 hr, p<0.0001 averaged over doses and time points) was “Moderate but significant activity”. For the same compound, the IC50 ([2]; Homo sapiens, Lymphoblastoid cell, six EBV-LCL lines, 72 hr, estimated, read-out: 50% growth inhibitory concentration (IC50)) was about 40 nM.
